DBAASP
In brackets after ≈: the same amount, converted by molar mass.

Key:
Experiment in all cases: ≥ marks a high value that may be exact or a test limit, other limits are often not marked, values filed in µg/mL are converted to µM
[1] = system: Bacillus subtilis KCTC 3068
[2] = system: Staphylococcus aureus KCTC 1621
[3] = system: Pseudomonas aeruginosa KCTC 1637
[4] = system: Staphylococcus epidermidis KCTC 1917
[5] = system: Salmonella typhimurium KCTC 1926
[6] = system: Escherichia coli KCTC 1682
[7] = system: Candida albicans ATCC 90028
[8] = system: Escherichia coli ATCC 25922
[9] = system: Staphylococcus aureus NCTC 8325
[10] = system: Escherichia coli ATCC 11775
[11] = system: Pseudomonas aeruginosa ATCC 27853
[12] = system: Staphylococcus aureus ATCC 25923

MIC [7] [µM] | MIC [8] [µM] | MIC [9] [µM] | SMILES | further results
 | > 100 | 15 (≈ 20.7 µg/mL) | CC[C@H](C)[C@H](NC(=O)CNC(=O)[C@H](CO)NC(=O)[C@H](CC(C)C)NC(=O)[C@H](CC(C)C)NC(=O)[C@H](CCCCN)NC(=O)CNC(=O)[C@H](CC(C)C)NC(=O)[C@@H](NC(=O)[C@@H]1CCCN1C(=O)[C@H](CC(C)C)NC(=O)[C@@H](N)Cc1ccccc1)[C@@H](C)CC)C(=O)N[C@@H](CC(C)C)C(N)=O [FLPILGKLLSGIL] | 
≥ 200 | 6.25 (≈ 15.1 µg/mL) | ≥ 50 | CC[C@H](C)[C@H](NC(=O)[C@H](CC(C)C)NC(=O)[C@H](CCCCN)NC(=O)[C@H](CCCCN)NC(=O)[C@@H](NC(=O)[C@H](C)NC(=O)[C@H](CCCCN)NC(=O)[C@@H](NC(=O)[C@H](C)NC(=O)[C@H](Cc1cnc[nH]1)NC(=O)[C@@H]1CCCN1C(=O)[C@@H](NC(=O)[C@H](CC(C)C)NC(=O)[C@@H]1CCCN1C(=O)[C@H](CCCCN)NC(=O)[C@@H](NC(=O)[C@H](Cc1ccc(O)cc1)NC(=O)[C@H](CCCCN)NC(=O)[C@H](CCSC)NC(=O)[C@H](Cc1ccccc1)NC(=O)CN)[C@@H](C)CC)[C@@H](C)CC)C(C)C)[C@@H](C)CC)C(=O)O [GFMKYIKPLIPHAVKAIKKLI] | 

Second part, the compound before the results:

SMILES | MIC [7] [µM] | MIC [8] [µM] | MIC [9] [µM] | further results
CC[C@H](C)[C@H](NC(=O)[C@H](CC(C)C)NC(=O)[C@H](CCCCN)NC(=O)[C@@H](NC(=O)[C@@H](NC(=O)[C@H](CCCN=C(N)N)NC(=O)[C@@H](N)CC(C)C)[C@@H](C)CC)C(C)C)C(=O)N[C@@H](CC(C)C)C(=O)N[C@@H](CCCCN)C(=O)N[C@@H](Cc1c[nH]c2ccccc12)C(=O)N[C@@H](CC(C)C)C(=O)N[C@@H](CCCN=C(N)N)C(N)=O [LRIVKLILKWLR] |  |  |  | MIC [1]: 8 µM (≈ 12.4 µg/mL); MIC [2]: 4 µM (≈ 6.2 µg/mL); MIC [3]: 16 µM (≈ 24.8 µg/mL); MIC [4]: 2 µM (≈ 3.1 µg/mL); MIC [5]: 4 µM (≈ 6.2 µg/mL); MIC [6]: 16 µM (≈ 24.8 µg/mL)
CC[C@H](C)[C@@H]1NC(=O)[C@H](CCCCN)NC(=O)[C@@H](NC(=O)[C@H](CCCCN)NC(=O)[C@H](CC(C)C)NC(=O)[C@H](CCCCN)NC(=O)[C@H](CC(=O)O)NC(=O)[C@H](CC(C)C)NC(=O)[C@H](CCSC)NC(=O)[C@H](CO)NC(=O)[C@H](C)NC(=O)[C@H](C)NC(=O)[C@@H](NC(=O)[C@@H](NC(=O)[C@H](CCCCN)NC(=O)[C@H](C)NC(=O)[C@@H](NC(=O)CNC(=O)[C@H](CCCCN)NC(=O)[C@@H](NC(=O)[C@@H](NC(=O)[C@H](CC(=O)O)NC(=O)[C@H](CC(C)C)NC(=O)[C@H](CC(C)C)NC(=O)CN)[C@@H](C)O)[C@@H](C)CC)C(C)C)[C@@H](C)O)C(C)C)CSSC[C@@H](C(=O)O)NC(=O)CNC(=O)[C@H](CO)NC1=O [GLLDTIKGVAKTVAASMLDKLKCKISGC] | ≥ 35 | 2 (≈ 5.73 µg/mL) | 2 (≈ 5.73 µg/mL) | 
NCCCC[C@H](NC(=O)[C@H](Cc1c[nH]c2ccccc12)NC(=O)[C@H](CCC(N)=O)NC(=O)[C@H](Cc1c[nH]c2ccccc12)NC(=O)[C@H](CCCCN)NC(=O)[C@@H](N)CCCCN)C(=O)O [KKWQWK] |  | 47 (≈ 42.4 µg/mL) |  | MIC [10]: 23 µM (≈ 20.8 µg/mL); MIC [11]: 47 µM (≈ 42.4 µg/mL); MIC [12]: 47 µM (≈ 42.4 µg/mL)
CC[C@H](C)[C@H](NC(=O)CNC(=O)CNC(=O)[C@@H](NC(=O)[C@H](Cc1ccccc1)NC(=O)[C@H](CC(C)C)NC(=O)[C@H](CO)NC(=O)[C@H](CC(C)C)NC(=O)[C@@H](NC(=O)CN)[C@@H](C)CC)[C@@H](C)O)C(=O)N[C@@H](CCCCN)C(=O)N[C@@H](C)C(=O)N[C@@H](CC(C)C)C(=O)NCC(=O)N[C@@H](CCCCN)C(=O)N[C@H](C(=O)N[C@@H](CC(C)C)C(=O)N[C@@H](Cc1ccccc1)C(=O)N[C@@H](CCCCN)C(=O)N[C@@H](CCSC)C(=O)N[C@@H](C)C(=O)NCC(=O)N[C@@H](CCCCN)C(=O)N[C@@H](C)C(=O)NCC(=O)N[C@@H](C)C(=O)N[C@@H](CCC(=O)O)C(=O)N[C@@H](Cc1cnc[nH]1)C(=O)N[C@@H](CC(C)C)C(=O)N[C@@H](C)C(=O)N[C@H]1CSSC[C@@H](C(=O)O)NC(=O)[C@H](CCC(N)=O)NC(=O)[C@H](CC(N)=O)NC(=O)[C@H]([C@@H](C)O)NC(=O)[C@H](C)NC(=O)[C@H](CCCCN)NC1=O)[C@@H](C)O [GILSLFTGGIKALGKTLFKMAGKAGAEHLACKATNQC] | ≥ 53 | 6 (≈ 22.5 µg/mL) | 3 (≈ 11.2 µg/mL) | 
